Experimental data from ChEMBL document CHEMBL1240359, “Micafungin concentrations from brain tissue and pancreatic pseudocyst fluid” (Antimicrob Agents Chemother, 2010).
The source made the active and inactive calls. The calls are words filed in the database; no cut-off is given here. Starred links: 1 amine or outer side, 2 acyl side, 3 side chain; linkers in the order of their positions; H or OH if unused. Positions of bridges follow the written chain, without caps; N, C: chain ends. Non-standard residues stand in square brackets, D forms with d. Residues, ends and D or L forms follow the SMILES beside them. *: point of attachment. hTyr(3S-OH,4S-OH,3'-OSO3H) = N[C@H](C(=O)O)[C@H](O)[C@@H](O)c1ccc(O)c(OS(=O)(=O)O)c1; Orn(4R-OH,5R-OH) = O=C([C@H](C[C@@H](O)[C@@H](O)N[*:3])N[*:1])[*:2]; Pro(3S-OH,4S-Me) = C[C@H]1CN[C@H](C(=O)O)[C@H]1O; X1 = CCCCCOc1ccc(-c2cc(-c3ccc(C(=O)*)cc3)no2)cc1; Gln(3R-OH) = NC(=O)C[C@@H](O)[C@H](N)C(=O)O; Hyp = O=C(O)[C@@H]1C[C@@H](O)CN1

How the values were obtained:
[1] = system: Candida albicans; experiment: Antimicrobial activity against Candida albicans infected in neutropenic rabbit model of disseminated candidiasis assessed as reduction in brain microbial burden at 0.25 to 2 mg/kg/day for 10 days; assay type: functional, organism-based
[2] = Drug level in rabbit brain at 1 mg/kg/day, iv for 8 days measured 30 mins after last dose; assay type: ADME, organism-based, Oryctolagus cuniculus; design: route intravenous; conditions: read-out: Drug uptake
[3] = Plasma concentration in patient with invasive candidiasis measured 23 hrs post last dose by HPLC; assay type: ADME, organism-based; conditions: human
[4] = Drug level in rabbit brain at 2 mg/kg/day, iv for 8 days measured 30 mins after last dose; assay type: ADME, organism-based, Oryctolagus cuniculus; design: route intravenous; conditions: read-out: Drug uptake
[5] = Drug level in rabbit lung at 0.5 to 2 mg/kg/day, iv for 8 days measured 30 mins after last dose; assay type: ADME, organism-based, Oryctolagus cuniculus; design: route intravenous; conditions: read-out: Drug uptake
[6] = Drug level in rabbit kidney at 0.5 to 2 mg/kg/day, iv for 8 days measured 30 mins after last dose; assay type: ADME, organism-based, Oryctolagus cuniculus; design: route intravenous; conditions: read-out: Drug uptake
[7] = Drug level in pancreatic pseudocyst fluid of patient with invasive candidiasis measured 24 hrs post last dose by HPLC; assay type: ADME; conditions: human, read-out: Drug uptake
[8] = Drug level in rabbit brain at 0.5 mg/kg/day, iv for 8 days measured 30 mins after last dose; assay type: ADME, organism-based, Oryctolagus cuniculus; design: route intravenous; conditions: read-out: Drug uptake
[9] = Drug level in brain of patient with invasive candidiasis measured 23 hrs post last dose by HPLC; assay type: ADME, tissue-based; conditions: human, read-out: Drug uptake

**Q.** What does the source list for `CCCCCOc1ccc(-c2cc(-c3ccc(C(=O)N[C@H]4C[C@@H](O)[C@@H](O)NC(=O)[C@@H]5[C@@H](O)[C@@H](C)CN5C(=O)[C@H]([C@H](O)CC(N)=O)NC(=O)[C@H]([C@H](O)[C@@H](O)c5ccc(O)c(OS(=O)(=O)O)c5)NC(=O)[C@@H]5C[C@@H](O)CN5C(=O)[C@H]([C@@H](C)O)NC4=O)cc3)no2)cc1` [MICAFUNGIN] (X1-[Orn(4R-OH,5R-OH)]T[Hyp][hTyr(3S-OH,4S-OH,3'-OSO3H)][Gln(3R-OH)][Pro(3S-OH,4S-Me)]; lactam 1-C)?
**A.** inhibition [1]: Active; concentration at 0.5 h [2]: 100 ng/g; concentration at 23 h [3]: 1580 ng/mL; concentration at 0.5 h [4]: 180 ng/g; concentration at 0.5 h [5]: 2260 ng/g; concentration at 0.5 h [6]: 1400 ng/g; concentration at 24 h [7]: 380 ng/mL; concentration at 0.5 h [8]: 80 ng/g; concentration at 23 h [9]: 280 ng/mL
